Target: T1, ligand binding domain of human ROR gamma (Homo sapiens, UniProt P51449)
T1 construct: NM_001001523; expressed in transfected cells; host or cells: HEK293T
T1 sequence (P51449 247-497 isoform P51449-2): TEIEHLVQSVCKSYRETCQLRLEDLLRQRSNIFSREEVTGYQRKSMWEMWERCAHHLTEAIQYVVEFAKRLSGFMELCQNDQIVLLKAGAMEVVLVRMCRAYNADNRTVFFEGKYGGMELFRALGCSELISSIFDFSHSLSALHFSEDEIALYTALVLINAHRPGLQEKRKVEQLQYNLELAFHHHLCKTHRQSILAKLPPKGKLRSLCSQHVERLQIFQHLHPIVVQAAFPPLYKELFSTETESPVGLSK
Experiment: ROR gamma reporter gene assay (GAL4-RORγ LBD luciferase, Dual-Glo)
Assay type: cell-based
Details: HEK293T cells transfected with pM-ROR gamma, 8 concentrations 3.5 nM to 10.5 μM, 24 h incubation; read-out: result (pIC50, inhibition of RORγ transcriptional activity) (converted)
Method: Luciferase reporter gene assay was used to assess inhibition of RORγ transcriptional activity.
ROR gamma expression vector was prepared by inserting the ligand binding domain of human ROR gamma (amino acid 247-497 of Genbank Accession NO. NM_001001523) adjacent to the yeast GAL4 transcription factor DNA binding domain in the expression vector pM (Clontech). The resulting expression vector pM-ROR gamma was used in transfection experiments together with the pGL4 luciferase reporter plasmid (Promega) containing five copies of the UAS GAL4 recognition site and pRL-CMV plasmids (Promega) containing the constitutive CMV promoter and the renilla luciferase.
For preparing transfection reagent/DNA mixture, 1 μg pM-ROR gamma, 1 μg pGL4 5×UAS, 625 pg pRL-CMV and 6.25 μL FuGENE™ HD transfection reagent (Promega) were mixed in 0.25 mL OPTI-MEM™ (Life technologies) at room temperature. At the same time, Negative control DNA mixture was prepared by using 1 μg pM empty vector instead of pM-ROR gamma plasmid. After a fifteen minute incubation, 0.25 mL of transfection reagent/DNA mixture was added to 1,000,000 of HEK293T cells (ATCC) in 5 mL of OPTI-MEM™ containing 10% Charcoal Stripped Fetal Bovine Serum.
Transfected cells were seeded onto 384 well plate (10 μL/well) and the 7.5 nL of test compounds were added to the wells in 8 concentrations ranging from 3.5 nM to 10.5 μM. The compounds were dissolved in 100% DMSO and the final concentration of DMSO in the assay was 0.075%.
After 24 h of incubation at 37° C., 5% CO2 in a cell culture incubator, the Dual-Glo™ Luciferase Assay System was used to detect activity according to the manufacturer's instructions (Promega, Cat. No.: E2920).
Data was plotted and pIC50 values were calculated using the XLfit program (ID Business Solutions Ltd.).

First: CC(C)(C)CCN(CC(=O)c1c(Cl)cncc1Cl)C(=O)c1cnn([C@H]2CC[C@H](C(=O)O)CC2)c1C(F)(F)F [Example 33, trans-4-(4-((2-(3,5-dichloropyridin-4-yl)-2-oxoethyl)(3,3-dimethylbutyl)carbamoyl)-5-(trifluorornethyl)-1H-pyrazol-1-yl)cyclohexanecarboxylic acid]
Second: O=C(CN(CCC1CC1)C(=O)c1cnn([C@H]2CC[C@H](C(=O)O)CC2)c1C(F)(F)F)c1c(Cl)cncc1Cl [Example 34, trans-4-(4-((2-cyclopropylethyl)(2-(3,5-dichloropyridin-4-yl)-2-oxoethyl)carbamoyl)-5-(trifluoromethyl)-1H-pyrazol-1-yl)cyclohexanecarboxyic acid]
The IC50 of the first is 12-fold lower: 112000 pM for the first, 1.35e+06 pM for the second.

Going from `CC(C)=CCN(CC(=O)c1c(Cl)cncc1Cl)C(=O)c1cnn([C@H]2CC[C@H](C(=O)O)CC2)c1C(F)(F)F` [Example 35, trans-4-(4-((2-(3,5-dichloropyridin-4-yl)-2-oxoethyl)(3-methylbut-2-en-1-yl)carbamoyl)-5-(trifluoromethyl)-1H-pyrazol-1-yl)cyclohexanecarboxyic acid] to `O=C(CN(C[C@@H]1CCOC1)C(=O)c1cnn([C@H]2CC[C@H](C(=O)O)CC2)c1C(F)(F)F)c1c(Cl)cncc1Cl` [Example 38, trans-4-(4-((2-(3,5-dichloropyridin-4-yl)-2-oxoethyl)(((S)-tetrahydrofuran-3-yl)methyl)carbamoyl)-5-(trifluoromethyl)-1H-pyrazol-1-yl)cyclohexanecarboxylic acid], the IC50 rises from 112000 pM to 1.55e+06 pM (14-fold).

Going from `CC1(C)CCC(CN(CC(=O)c2c(Cl)cncc2Cl)C(=O)c2cnn([C@H]3CC[C@H](C(=O)O)CC3)c2C(F)(F)F)CC1` [Example 36, trans-4-(4-((2-(3,5-dichloropyridin-4-yl)-2-oxoethyl)((4,4-dimethylcyclohexyl)methyl)carbamoyl)-5-(trifluorornethyl)-1H-pyrazol-1-yl)cyclohexanecarboxylic acid] to `O=C(CN(CC1CCC2(CC1)CC2)C(=O)c1cnn([C@H]2CC[C@H](C(=O)O)CC2)c1C(F)(F)F)c1c(Cl)cncc1Cl` [Example 37, trans-4-(4-((2-(3,5-dichloropyridin-4-yl)-2-oxoethyl)(spiro[2.5]octan-6-ylmethyl)carbamoyl)-5-(trifluoromethyl)-1H-pyrazol-1-yl)cyclohexanecarboxylic acid], the IC50 falls from 117000 pM to 18600 pM (6.3-fold).

Compared with `O=C(CN(C[C@H]1CCOC1)C(=O)c1cnn([C@H]2CC[C@H](C(=O)O)CC2)c1C(F)(F)F)c1c(Cl)cncc1Cl` [Example 39, trans-4-(4-((2-(3,5-dichloropyridin-4-yl)-2-oxoethyl)(((R)-tetrahydrofuran-3-yl)methyl)carbamoyl)-5-(trifluoromethyl)-1H-pyrazol-1-yl)cyclohexanecarboxylic acid], `O=C(CN(Cc1ccccc1)C(=O)c1cnn([C@H]2CC[C@H](C(=O)O)CC2)c1C(F)(F)F)c1c(Cl)cncc1Cl` [Example 40, trans-4-(4-(benzyl(2-(3,5-dichloropyridin-4-yl)-2-oxoethyl)carbamoyl)-5-(trifluoromethyl)-1H-pyrazol-1-yl)cyclohexanecarboxylic acid] is lower in IC50: greater than 1e+07 pM for the first, 56200 pM for the second.

Going from `O=C(CN(Cc1ccc(Cl)cc1)C(=O)c1cnn([C@H]2CC[C@H](C(=O)O)CC2)c1C(F)(F)F)c1c(Cl)cncc1Cl` [Example 41, trans-4-(4-((4-chlorobenzyl)(2-(3,5-dichloropyridin-4-yl)-2-oxoethyl)carbamoyl)-5-(trifluoromethyl)-1H-pyrazol-1-yl)cyclohexanecarboxylic acid] to `O=C(CN(Cc1cc(F)cc(F)c1)C(=O)c1cnn([C@H]2CC[C@H](C(=O)O)CC2)c1C(F)(F)F)c1c(Cl)cncc1Cl` [Example 42, trans-4-(4-((2-(3,5-dichloropyridin-4-yl)-2-oxoethyl)(3,5-difluorobenzyl)carbamoyl)-5-(trifluoromethyl)-1H-pyrazol-1-yl)cyclohexanecarboxylic acid], the IC50 rises from 29500 pM to 44700 pM (1.5-fold).

— US9365522B2, “Pyrazole amide derivative” (AMGEN INC., priority 2015, dated 2016)
